Results on 72 compounds are retold here after PubChem BioAssay AID179 (DTP/NCI, 2004).

Where “and” joins values, the source holds several entries; their conditions need not be identical. Equal entries are not always repeated. Calls of active or inactive are those of the source.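 How the source made its calls: active means compounds giving half or more protection of infected cells from virus-caused growth loss, again on retest; inactive means the rest.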

The experiment has as its system CEM cells HIV-1 protection, formazan growth assay. Nature of the experiment: NCI AIDS Antiviral Assay. Conditions: for IC50: measured here: growth of uninfected CEM cells. The method in brief:
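Soluble formazan readout of cell growth; CEM cells ± HIV-1; 5 drug concs. ≥50% protection → retest; ≥50% again = moderately active; reproducible 100% = confirmed active.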

The term EC50 denotes the concentration giving half of the maximal effect. As usually defined, the IC50 is the concentration that inhibits the measured activity by half. A higher IC50 goes with lower potency. On to `CCCC/C=C(/C1OC(=O)N2CCC[C@H]2C1(C)C)[Si](C)(C)C` (stereo partly drawn), for which the EC50 was more than 6.17 µM and the IC50 was more than 6.17 µM.

As to `CC(C)=CC1CCc2ccccc2N1S(=O)(=O)c1ccc(C)cc1` (stereo not drawn), the EC50 is more than 25.1 µM and the IC50 is 1.32 µM.

As for `CCOc1ncn(-c2ccc(NC(=S)Nc3ncccn3)cc2)n1`, the EC50 was more than 200 µM and the IC50 turned out to be 95.5 µM.

Consider `O=S(=O)(O)C(O)CC(O)S(=O)(=O)O` (stereo not drawn), for which the EC50 was more than 200 µM and the IC50 was 102 µM.

Take `O=C(O)c1c[nH]c2c(ccc3[nH]cc(C(=O)O)c(=O)c32)c1=O`: the EC50 was more than 200 µM and the IC50 is more than 200 µM.

With `Cc1cc(O)c(/C=N/C(=S)Nc2cccc(C)c2C)c(=O)o1`, the outcome was inactive.

Regarding `Cc1nc2ccccc2c(-n2cccn2)c1CCn1cccn1`, the EC50 was more than 200 µM and the IC50 is 93.3 µM.

`CC(=O)c1ccc(-c2oc(-c3ccccc3)cc2-c2ccc3c(c2)OCO3)s1`: the EC50 was more than 200 µM and the IC50 was 22.9 µM.

Consider `C=CCC(C(=O)NC(N)=O)c1ccccc1` (stereo not drawn), for which the EC50 was more than 832 µM and the IC50 stood at 617 µM.

For `CC(=O)NC1C(=O)N(Cc2ccccc2)[C@@H]1COC(C)(C)C` (stereo partly drawn), the EC50 was more than 813 µM and the IC50 is more than 813 µM.

In the case of `COc1ccc(-n2c(SCC(=O)NC(=O)Nc3ccccc3)nc3c(Br)cc(Br)cc3c2=O)cc1`, the EC50 is more than 200 µM and the IC50 is more than 200 µM.

For `CN(C)Cc1cc(C(=O)/C=C/c2ccc([N+](=O)[O-])cc2)cc(CN(C)C)c1O`, the EC50 was more than 200 µM and the IC50 worked out at 2.82 µM.

Consider `CCCCCCC1CCC2CCCC(C)N12` (stereo not drawn), for which the EC50 was more than 162 µM and the IC50 was more than 162 µM.

Consider `[N-]=[N+]=Nc1ccccc1-[n+]1noc([O-])c1Br`, for which the EC50 is more than 457 µM and the IC50 was more than 457 µM.

In the case of `Cc1[nH]c2ncn(N)c(=N)c2c1Cc1ccccc1`, the EC50 was more than 200 µM and the IC50 was more than 200 µM.

As to `C/C(=C\c1csc(C)n1)[C@@H]1C[C@@H]2O[C@]2(C)CCC[C@H](C)[C@H](O)[C@@H](C)C(=O)C(C)(C)[C@@H](O)CC(=O)O1` (tested in a mixture with another compound), the EC50 was more than 0.02 µM and the IC50 amounted to 0.001 µM.

With `O=C1c2ccccc2S(=O)(=O)N1Sc1ccccc1[N+](=O)[O-]`, the EC50 is more than 200 µM and the IC50 turned out to be 17 µM.

For `Brc1ccc(-c2cnc3nc4[nH]c5ccccc5c4nn23)cc1`, the EC50 was more than 200 µM and the IC50 came to 123 µM.

Turning to `COc1ccc(CCNC(=S)N/C=C\c2nc3ccccc3[nH]c2=O)cc1OC`, the result was inactive.

With `COc1ccc(OCc2nc3cc(C(F)(F)F)ccc3nc2-c2ccccc2)cc1`, the EC50 was more than 200 µM and the IC50 is more than 200 µM.

Take `CCOCCOCCCNCC(=O)N1CCN(C(=O)CNCCCOCCOCC)CC1`: the outcome was inactive.

On to `COC1=C(N)C(=O)c2ncccc2C1=O`, for which the result was inactive.

Consider `CCCCCCCCCCCCCCCCOCC(COC1OC(COC(C)=O)C(OC(C)=O)C(OC(C)=O)C1OC(C)=O)OCCCCCCCCCCCCCCCC` (stereo not drawn), for which the EC50 was more than 29.5 µM and the IC50 is more than 29.5 µM.

Turning to `COc1ccc(-c2cc(=O)c3ccc(O)cc3o2)cc1`, the EC50 was more than 83.2 µM and the IC50 was more than 83.2 µM.

Take `C=C1CCC2C(C)(CO)C(O)CCC2(C)C1CC(O)C1=CCOC1=O` (stereo not drawn): the outcome was inactive.

For `O=C(O)c1ccc(CS(=O)(=O)c2ccc(Cl)cc2)cc1`, the EC50 was more than 794 µM and the IC50 is more than 794 µM.

Consider `COc1ccc(/C=C\c2cc(OC)c(OC)c(OC)c2)cc1OC(=O)CC(NC(=O)OC(C)(C)C)C(=O)OC(C)(C)C` (stereo not drawn), for which the EC50 is more than 2 µM and the IC50 was 0.00331 µM.

Turning to `O=C1CC(c2ccccc2)Oc2cc(O)cc(O)c21` (stereo not drawn), the EC50 is more than 200 µM; the IC50 was 34.7 µM and > 200 µM and 55 µM.

Regarding `COc1ccc2c3c([nH]c(=O)c2c1C(=O)O)-c1ccccc1CC3`, the EC50 is more than 16.2 µM and the IC50 is more than 16.2 µM.

Regarding `O=C1Nc2ccccc2C1(O)C/C(=N/O)c1ccc2ccccc2c1` (stereo not drawn), the EC50 was more than 107 µM and the IC50 is more than 107 µM.

On to `CCOC(=O)Nc1n[nH]nc1Cl`, for which the EC50 was more than 200 µM and the IC50 is more than 200 µM.

`CCN1CCC(O)(c2ccc(Cl)c(Cl)c2)C(C(=O)c2ccc(Cl)c(Cl)c2)C1` (stereo not drawn): the EC50 is more than 67.6 µM and the IC50 turned out to be 38.9 µM.

As for `CCOC(=O)Nc1ccc2c(c1)c(CCCCCCc1nc3ccccc3c3ccc(NC(=O)OCC)cc13)nc1ccccc12`, the EC50 was more than 100 µM and the IC50 turned out to be 21.4 µM.

Consider `Cn1nc(-c2ccccc2)c(N=[N+]=[N-])cc1=O`, for which the EC50 was more than 200 µM and the IC50 was more than 200 µM.

Consider `Cc1occc1C(=S)Nc1ccc(Cl)c(C(=O)OC(C(C)C)C(C)C)c1`, for which the EC50 is 0.0912 µM and the IC50 was 13.2 µM.

As to `N#CC1=C(S)N(C2OC(CO)C(O)C(O)C2O)C(c2ccccc2)=CC1c1ccccc1` (stereo not drawn), the EC50 is more than 200 µM and the IC50 amounted to 51.3 µM.

Regarding `CCn1c2ccccc2n2c(=O)c3c(c(C#N)c12)CCCC3`, the EC50 was more than 200 µM and the IC50 is more than 200 µM.

In the case of `O=S(c1ccc(Cl)cc1)c1ccccc1C1=NCCN1` (stereo not drawn), the EC50 is more than 200 µM and the IC50 is more than 200 µM.

`CO/C(=N\N=Cc1ccccc1)c1ccncc1` came in with an EC50 of 15.1 µM and an IC50 of 166 µM.

On to `C=CCC[CH2][Sn]([c]1ccccc1)([c]1ccccc1)[c]1ccccc1`, for which the outcome was inactive.

With `CC(C)(C)[Si](C)(C)OCCc1ccccc1C1CC2(S(=O)(=O)c3ccccc3)ON1CC2S(=O)(=O)c1ccccc1` (stereo not drawn), the EC50 was more than 16.2 µM and the IC50 was more than 16.2 µM.

For the compound `O=[N+]([O-])c1cc(-c2nc(=S)[nH][nH]2)ccc1O`, the EC50 was more than 1050 µM and the IC50 worked out at 257 µM.

As to `O=C1COC(C(=O)c2ccccc2)C(=O)N1` (stereo not drawn), the EC50 was more than 117 µM and the IC50 is more than 117 µM.

For `COc1cccc(C(=O)CC(c2ccccc2)C(C)(C)[N+](=O)[O-])c1` (stereo not drawn), the EC50 is more than 200 µM and the IC50 is 95.5 µM.

Regarding `Cc1ccc(/C=C(/C(=O)c2ccccc2)c2ccccc2)cc1`, the EC50 is more than 4.9 µM and the IC50 was more than 4.9 µM.

For the compound `O=S(Nc1ccccc1)c1ccc(Cl)c(Cl)c1` (stereo not drawn), the EC50 was more than 200 µM and the IC50 is more than 200 µM.

For the compound `N=c1ccn2c(n1)OC1C(OP(=O)(O)O)C(CO)OC12` (stereo not drawn), the EC50 is more than 200 µM and the IC50 was found to be 0.437 µM.

As to `Cc1cc(N(CCC#N)CCC#N)ccc1/C=C1\N=C(c2cc([N+](=O)[O-])ccc2Cl)N(c2cccc(Cl)c2)C1=O`, the EC50 is more than 12.6 µM and the IC50 was more than 12.6 µM.

Take `CC(Nc1cc(Cl)cc(Cl)c1)c1ccncc1` (stereo not drawn): the EC50 was more than 200 µM and the IC50 turned out to be 15.8 µM.

Regarding `O=C(N/N=C/c1ccc(Cl)cc1Cl)c1ccccc1SSc1ccccc1C(=O)N/N=C/c1ccc(Cl)cc1Cl`, the EC50 was 38.9 µM and the IC50 was found to be 178 µM.

On to `O=[N+]([O-])c1ccc2oc(=Nc3ccccc3)c(Nc3ccccc3)nc2c1`, for which the EC50 was more than 200 µM and the IC50 came to 166 µM.

With `COc1ccc2cc1Oc1cc3c(cc1OC)CC[N+](C)(C)C3Cc1ccc(cc1)Oc1c(OC)c(OC)cc3c1C(C2)[N+](C)(C)CC3` (stereo not drawn), the EC50 is more than 200 µM and the IC50 was more than 200 µM.

Take `O=C(OC1=C(OC(=O)c2ccc(N=Nc3ccccc3)cc2)c2ccccc21)c1ccc(N=Nc2ccccc2)cc1`: the EC50 was more than 200 µM and the IC50 was more than 200 µM.

For the compound `CN(Cc1ccccc1)C1(N(C)Cc2ccccc2)CC1`, the outcome was inactive.

In the case of `Cc1c(C#N)c(N)n(C2OCC(O)C(O)C2O)c(=S)c1C#N` (stereo not drawn), the result was inactive.

Regarding `CC1C2CCC3(CCC4C5(C)CCCC4(CN(CCO)C5)C3C2)C1O` (stereo not drawn), the result was inactive.

With `C[N+](C)(C)CC(=O)N/N=C(/Cc1nc2c3c(ccc2[nH]c1=O)C(=O)c1ccccc1C3=O)C(=O)Nc1ccc(Cl)c(Cl)c1`, the EC50 is more than 20.9 µM and the IC50 was more than 20.9 µM.

Take `O=C(Nc1ccc2oc(=O)c(C(=O)O)cc2c1)Oc1ccccc1`: the EC50 is more than 282 µM and the IC50 is more than 282 µM.

`COc1cccc2c1C(c1ccc3ccccc3c1)OC2=O` (stereo not drawn): the EC50 is more than 46.8 µM and the IC50 turned out to be 25.1 µM.

As for `NC(=O)NC12CC3CC(CC(F)(C3)C1)C2`, the EC50 is more than 1170 µM and the IC50 was more than 1170 µM.

On to `CCOC(=O)Cn1c(=O)n(C)c(=O)c2[nH]cnc21`, for which the EC50 is more than 1000 µM and the IC50 was more than 1000 µM.

Take `CC1=NC(C(=O)O)Cc2c1[nH]c1ccccc21` (stereo not drawn): the result was inactive.

For `O=S1(=O)Cc2ccc3c4c2-c2c(ccc5ccc(c-4c25)CS(=O)(=O)C3)C1`, the EC50 was more than 200 µM and the IC50 came out at 17 µM.

Regarding `COc1cc2c(cc1OC)Cc1cc(OC)c(OC)cc1Cc1cc(OC)c(OC)cc1C2`, the outcome was inactive.

Regarding `CCOC(=O)N1c2c(ccn2C)-c2ccn(C)c2N1C(=O)OCC`, the EC50 was more than 15.1 µM and the IC50 stood at 5.89 µM.

Take `O=C(c1ccccc1)c1ccc2cccc(OC3OC(CO)C(O)C(O)C3O)c2n1` (stereo not drawn): the EC50 is more than 603 µM and the IC50 is 316 µM.

For the compound `Cc1nc2c(=O)n(C)c(=O)n(C)c2o1`, the EC50 was more than 200 µM and the IC50 was more than 200 µM.

`CC1=C(O)C(=O)C(C2=C(O)C(=O)C(C)=C(O)C2=O)=C(O)C1=O`: the EC50 is more than 263 µM and the IC50 was determined as 145 µM.

`c1ccc(N=c2snc3scc(-c4ccccc4)n23)cc1`: the EC50 was more than 23.4 µM and the IC50 is more than 23.4 µM.

`CCOc1ccc(NC2OC(CO)C(O)C(O)C2NC(C)=O)cc1` (stereo not drawn): the EC50 is more than 200 µM and the IC50 was more than 200 µM.

For `COC(=O)C(C(=O)C(=O)Nc1ccc(C)cc1)c1nc2ccc([N+](=O)[O-])cc2[nH]c1=O` (stereo not drawn), the EC50 was more than 44.7 µM and the IC50 is more than 44.7 µM.

`O=c1[nH]c(=O)c2[nH]c(=O)[nH]c(=O)c2[nH]1`: the EC50 was more than 200 µM and the IC50 was more than 200 µM.
